Consider six compounds from US20100280061A1, “NOVEL ANALGESIC THAT BINDS FILAMIN A” (priority 2009, published 2010).

Experiment [1] concerns the target Bn-VAKGL pentapeptide of filamin A (FLNA) (Homo sapiens, UniProt P21333). Briefly: FITC-NLX-based FLNA screening assay (FLNA peptide binding assay). To be noted: 10 nM FITC-NLX; for Percent inhibition of FITC-NLX binding, 0.01 μM: 0.01 μM compound; for Percent inhibition of FITC-NLX binding, 0.1 μM: 0.1 μM compound; for Percent inhibition of FITC-NLX binding, 1 μM: 1 μM compound. How it is done:
The final assay volume is 100 μl.
Compounds are tested in triplicate or quadruplicate.

In a further experiment the test system is mouse. Briefly: Mouse hot-water tail-flick test. Type of experiment: in vivo. To be noted: orally administered. How it is done:
The mouse “tail flick” test was used to assay the relative antinociceptive activity of compositions containing a compound to be assayed.
This assay was substantially that disclosed by Xie et al., 2005 J. Neurosci 25:409-416.
The mouse hot-water tail-flick test was performed by placing the distal third of the tail in a water bath maintained at 52° C. The latency until tail withdrawal from the bath was determined and compared among the treatments. A 10 second cutoff was used to avoid tissue damage. Data are converted to percentage of antinociception by the following formula: (response latency−baseline latency)/(cutoff−baseline latency)×100 to generate dose-response curves. […] Relative potency was determined as a ratio of the A50 values.
A general note: In hot-plate and tail-flick tests a longer latency is read as antinociception.

Another experiment concerns the target T1, mu opiate receptor (MOR) (Rattus norvegicus, UniProt P33535).
T1 construct: from tissue; host or cells: striatal tissue (membrane preparation)
Briefly: [35S]GTPγS binding assay using striatal membranes (MOR agonist activity). Type of experiment: biochemical. On the set-up: MOR agonist activity, [35S]GTPγS binding to Gαo, 0.1 μM / MOR agonist activity, [35S]GTPγS binding to Gαo, 1 μM / MOR agonist activity, [35S]GTPγS binding to Gαo, 1 μM + BFNA: reference not given here. The note with it: for MOR agonist activity, [35S]GTPγS binding to Gαo, 0.1 μM: 0.1 μM compound; for MOR agonist activity, [35S]GTPγS binding to Gαo, 0.1 μM / MOR agonist activity, [35S]GTPγS binding to Gαo, 1 μM: striatal membranes; for MOR agonist activity, [35S]GTPγS binding to Gαo, 1 μM + BFNA: 1 μM compound + 1 μM β-funaltrexamine; for MOR agonist activity, [35S]GTPγS binding to Gαo, 1 μM: 1 μM compound.

For another experiment, the target named is filamin A (Homo sapiens, UniProt P21333). To be noted: read-out: affinity of binding to filamin A; cited from earlier work.
In experiment [2] the test system is MOR-Gs/olf and MOR-Go coupling. Briefly: Relative Gs/Go switching in organotypic striatal slice cultures (MOR-G protein coupling). Type of experiment: cell-based, rat. The note with it: striatal slice culture. How it is done:
The experiments described herein were carried out on organotypic striatal slices from male Sprague Dawley rats (200 to 250 g) purchased from Taconic (Germantown, N.Y.). Rats were housed two per cage and maintained on a regular 12-hour light/dark cycle in a climate-controlled room with food and water available ad libitum and sacrificed by rapid decapitation. All data are presented as mean±standard error of the mean. Treatment effects were evaluated by two-way ANOVA followed by Newman-Keul's test for multiple comparisons. Two-tailed Student's t test was used for post hoc pairwise comparisons. The threshold for significance was p<0.05.
Striatal slices ([…]) were prepared using a Mcllwain tissue chopper (Mickle Laboratory Engineering Co., Surrey, UK). Slices were carefully transferred to sterile, porous culture inserts (0.4 μm, Millicell-CM) using the rear end of a glass Pasteur pipette. Each culture insert unit contained 2 slices and was placed into one well of the 12-well culture tray. […] The pH value was adjusted to 7.2 with HEPES buffer.
Cultures were first incubated for 2 days to minimize the impact of injury from slice preparation. Incubator settings throughout the experiment were 36° C. with 5% CO2.
Slices were returned to culture medium with normal serum after each drug exposure. Tissues were harvested 16 hours after the last drug exposure by centrifugation.
For determination of MOR-G protein coupling, slices were homogenized to generate synaptic membranes. […] Following centrifugation, striatal membrane lysates were immunoprecipitated with immobilized anti-Gαs/olf or -Gαo conjugated with immobilized protein G-agarose beads. The level of MOR in anti-Gαs/olf or -Gαo immunoprecipitates was determined by Western blotting using specific anti-MOR antibodies.

Where [3] appears, read: 32 mg/kg, at about 20-30 minutes.

T1 sequence (P33535 whole entry): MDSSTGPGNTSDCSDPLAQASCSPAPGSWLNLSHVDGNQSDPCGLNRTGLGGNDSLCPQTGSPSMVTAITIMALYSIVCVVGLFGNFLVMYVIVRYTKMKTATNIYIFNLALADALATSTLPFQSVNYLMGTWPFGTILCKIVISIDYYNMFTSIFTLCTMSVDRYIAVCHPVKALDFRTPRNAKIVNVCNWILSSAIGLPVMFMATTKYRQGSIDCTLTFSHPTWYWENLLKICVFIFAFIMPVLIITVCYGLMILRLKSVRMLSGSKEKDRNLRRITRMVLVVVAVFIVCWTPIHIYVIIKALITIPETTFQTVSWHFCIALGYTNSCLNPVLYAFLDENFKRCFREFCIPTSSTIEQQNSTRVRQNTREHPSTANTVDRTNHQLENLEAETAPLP
Chain of filamin A (P21333 whole entry): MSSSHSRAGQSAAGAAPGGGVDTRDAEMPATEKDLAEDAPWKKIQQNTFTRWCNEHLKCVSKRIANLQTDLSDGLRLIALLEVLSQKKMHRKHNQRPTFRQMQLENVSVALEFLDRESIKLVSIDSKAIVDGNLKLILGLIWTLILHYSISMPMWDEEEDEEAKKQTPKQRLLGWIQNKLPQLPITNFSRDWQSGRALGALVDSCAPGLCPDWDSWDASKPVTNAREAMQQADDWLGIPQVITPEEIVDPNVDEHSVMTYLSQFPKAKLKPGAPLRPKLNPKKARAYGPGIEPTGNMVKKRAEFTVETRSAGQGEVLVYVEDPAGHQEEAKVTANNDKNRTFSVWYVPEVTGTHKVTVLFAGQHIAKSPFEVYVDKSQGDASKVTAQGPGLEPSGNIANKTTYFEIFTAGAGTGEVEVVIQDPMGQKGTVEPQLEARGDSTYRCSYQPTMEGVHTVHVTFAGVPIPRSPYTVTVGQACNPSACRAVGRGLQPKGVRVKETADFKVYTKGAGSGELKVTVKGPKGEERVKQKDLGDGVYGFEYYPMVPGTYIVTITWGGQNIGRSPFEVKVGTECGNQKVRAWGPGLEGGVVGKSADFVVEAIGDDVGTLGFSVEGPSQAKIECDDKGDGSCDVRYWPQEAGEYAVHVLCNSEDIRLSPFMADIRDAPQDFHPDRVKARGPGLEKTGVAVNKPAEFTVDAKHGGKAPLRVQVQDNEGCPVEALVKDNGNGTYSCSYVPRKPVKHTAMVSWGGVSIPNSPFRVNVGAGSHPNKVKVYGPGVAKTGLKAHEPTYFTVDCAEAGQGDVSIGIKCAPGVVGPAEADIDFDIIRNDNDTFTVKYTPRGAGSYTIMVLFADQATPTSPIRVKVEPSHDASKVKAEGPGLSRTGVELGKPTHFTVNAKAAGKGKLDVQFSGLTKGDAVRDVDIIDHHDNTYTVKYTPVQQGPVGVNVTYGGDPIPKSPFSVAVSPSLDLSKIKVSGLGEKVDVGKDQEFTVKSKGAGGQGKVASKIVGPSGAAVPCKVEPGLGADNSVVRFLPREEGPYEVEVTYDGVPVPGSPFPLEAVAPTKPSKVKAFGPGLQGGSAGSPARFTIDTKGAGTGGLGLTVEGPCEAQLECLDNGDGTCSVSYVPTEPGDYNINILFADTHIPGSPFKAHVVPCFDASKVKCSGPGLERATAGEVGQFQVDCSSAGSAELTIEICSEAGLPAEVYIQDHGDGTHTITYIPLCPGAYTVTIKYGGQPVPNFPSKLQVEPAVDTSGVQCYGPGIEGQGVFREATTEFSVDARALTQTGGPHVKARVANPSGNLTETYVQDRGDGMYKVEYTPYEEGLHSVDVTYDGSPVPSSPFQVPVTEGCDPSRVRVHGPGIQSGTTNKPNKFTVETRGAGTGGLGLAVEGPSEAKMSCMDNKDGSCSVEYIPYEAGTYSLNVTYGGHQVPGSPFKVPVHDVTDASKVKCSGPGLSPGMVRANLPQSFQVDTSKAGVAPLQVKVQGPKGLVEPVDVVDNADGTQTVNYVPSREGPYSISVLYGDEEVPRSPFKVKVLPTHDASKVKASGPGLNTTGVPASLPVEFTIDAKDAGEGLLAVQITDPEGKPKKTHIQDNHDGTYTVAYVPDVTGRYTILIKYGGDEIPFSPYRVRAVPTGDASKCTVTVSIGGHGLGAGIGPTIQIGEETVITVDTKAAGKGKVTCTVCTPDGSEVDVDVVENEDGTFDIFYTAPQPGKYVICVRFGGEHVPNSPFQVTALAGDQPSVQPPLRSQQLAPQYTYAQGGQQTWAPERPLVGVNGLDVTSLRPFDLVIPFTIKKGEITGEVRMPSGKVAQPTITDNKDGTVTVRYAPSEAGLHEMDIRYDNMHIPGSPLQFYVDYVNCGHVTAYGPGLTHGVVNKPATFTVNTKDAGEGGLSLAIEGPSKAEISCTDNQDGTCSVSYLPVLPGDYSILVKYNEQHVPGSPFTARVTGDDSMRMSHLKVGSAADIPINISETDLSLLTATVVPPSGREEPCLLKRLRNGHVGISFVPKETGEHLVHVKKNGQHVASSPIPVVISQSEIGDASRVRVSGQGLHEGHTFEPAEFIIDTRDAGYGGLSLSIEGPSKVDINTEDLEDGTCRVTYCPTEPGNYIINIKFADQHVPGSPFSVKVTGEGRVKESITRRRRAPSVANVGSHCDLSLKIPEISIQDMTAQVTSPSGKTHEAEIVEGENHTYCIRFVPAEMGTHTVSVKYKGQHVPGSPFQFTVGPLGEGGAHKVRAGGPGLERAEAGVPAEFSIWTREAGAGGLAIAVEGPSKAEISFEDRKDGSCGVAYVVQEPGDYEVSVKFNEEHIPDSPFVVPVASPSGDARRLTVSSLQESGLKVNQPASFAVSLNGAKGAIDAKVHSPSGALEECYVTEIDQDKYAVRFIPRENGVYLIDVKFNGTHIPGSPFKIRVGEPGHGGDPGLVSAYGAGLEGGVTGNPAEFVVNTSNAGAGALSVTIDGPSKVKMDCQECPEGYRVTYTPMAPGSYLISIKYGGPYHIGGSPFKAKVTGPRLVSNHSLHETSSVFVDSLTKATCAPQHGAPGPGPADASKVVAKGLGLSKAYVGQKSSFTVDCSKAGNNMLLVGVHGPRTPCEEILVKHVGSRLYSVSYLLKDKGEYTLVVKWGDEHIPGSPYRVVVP

Turning to `COc1cccc(OC)c1CC(=O)CC1c2c(cc3c(c2OC)OCO3)CC[N+]1(C)C.[I-]` (stereo not shown) [B0036], in experiment [1], the “Percent inhibition of FITC-NLX binding, 0.01 μM” value is given as 46.6%; the “Percent inhibition of FITC-NLX binding, 0.1 μM” value amounted to 52.8%; the “Percent inhibition of FITC-NLX binding, 1 μM” value is 62.1%. Further, the “mean maximum antinoniception amount” value with mouse (setting [3]) is on record as “about 20%”. Also, at mu opiate receptor (MOR), the “MOR agonist activity, [35S]GTPγS binding to Gαo, 0.1 μM” value (“MOR agonist activity … 0.1 μM” for short) was 61.4%; the “MOR agonist activity, [35S]GTPγS binding to Gαo, 1 μM + BFNA” value (from here on “MOR agonist activity … 1 μM + BFNA”) turned out to be 65.1%; the “MOR agonist activity, [35S]GTPγS binding to Gαo, 1 μM” value came out at 120.6%.
Regarding `C=CCN1CC[C@]23c4c5ccc(O)c4O[C@H]2C(=O)CC[C@@]3(O)[C@H]1C5` [NLX, naloxone], the Kd at filamin A is about 4 pM.
For `CN1CC[C@]23c4c5ccc(O)c4O[C@H]2[C@@H](O)C=C[C@H]3[C@H]1C5` [morphine, reference compound], the “mean maximum antinoniception amount” value in the experiment on mouse (56 mg/kg, at about 20 minutes) was “about 43%”. Moreover, the antinoniceptive effect result with mouse (same dose (32 mg/kg), at thirty minutes) is “about 30%”.
In the case of `COc1ccccc1CC(=O)CC1c2c(cc3c(c2OC)OCO3)CC[N+]1(C)C` (stereo not shown) [compound 5009], in the experiment with mouse (setting [3]), the “mean maximum antinoniception amount” value is given as “about 30%”. Further, at mu opiate receptor (MOR), the “MOR agonist activity … 0.1 μM” value was 128.5%; the “MOR agonist activity … 1 μM + BFNA” value is reported as 87.5%; the “MOR agonist activity, [35S]GTPγS binding to Gαo, 1 μM” value was determined as 270.4%.
For `COCOc1ccc(CCC(=O)CC2c3c(cc4c(c3OC)OCO4)CC[N+]2(C)C)cc1.[I-]` (stereo not shown) [B0040], in experiment [2] (10 μM), the “Go (MOR in anti-Gαo immunoprecipitates), average” value came to 1419.8; the “Gs/Go-Coupled Ratio, average” value turned out to be 0.598; the “Gs/olf (MOR in anti-Gαs/olf immunoprecipitates), average” value turned out to be 839.0. For the same compound, in experiment [2] (100 μM), the “Go (MOR in anti-Gαo immunoprecipitates), average” value is recorded as 1472.6; the “Gs/Go-Coupled Ratio, average” value is on record as 0.332; the “Gs/olf (MOR in anti-Gαs/olf immunoprecipitates), average” value came out at 867.2. For the same compound, in experiment [1], the “Percent inhibition of FITC-NLX binding, 0.01 μM” value was 40.0%; the “Percent inhibition of FITC-NLX binding, 0.1 μM” value amounted to 53.1%; the “Percent inhibition of FITC-NLX binding, 1 μM” value is 57.1%. Moreover, the “mean maximum antinoniception amount” value in the experiment on mouse (setting [3]) is “about 25%”. Also, on mu opiate receptor (MOR), the “MOR agonist activity … 0.1 μM” value came out at 146.0%; the “MOR agonist activity … 1 μM + BFNA” value turned out to be 55.3%; the “MOR agonist activity, [35S]GTPγS binding to Gαo, 1 μM” value is 243.3%.
As for `O=C1CC[C@@]2(O)[C@H]3Cc4ccc(O)c5c4[C@@]2(CCN3CC2CC2)[C@H]1O5` [NTX, naltrexone], at filamin A, the Kd was about 4 pM.
